Source: patent publication US20260374766A1, “METHODS FOR TREATING CANCER” (Antares Therapeutics, Inc., priority 2022, published 2026)
Where two headings read alike, the source gives them in different places.

Assays:
H1299 p53 Y220C = experiment: Cell Proliferation Assay (CellTiter-Glo, CTG), H1299 p53 Y220C (NClH1299-inducible p53 Y220C); type: cell-based; conditions: Homo sapiens, NCI-H1299, 120 h, 5 days
Procedure: (§1) Inducible p53 Y220C and R273H constructs (Tet-One inducible expression system; Takara) were stably expressed in NClH1299 cells by lentiviral transduction. NUGC3, A549, BxPC3, T3M4, HuH7, HCC2935, MFE296, NClH1299, NClH1299-inducible p53 Y220C, and NClH1299-inducible p53 R273H cell lines were used for cell proliferation assay. 250-500 cells were seeded in each well of 384 plate and then compounds were dispensed into each well using Echo or Tecan. After 5 days of incubation, equal volume of CellTiter-Glo reagent (G7570; Promega) was added into each well and the plate was incubated at room temperature for 10 minutes with shaking. The luminescent signal was measured by PheraStar microplate reader and IC50 was calculated.

NUGC3 p53 Y220C = experiment: Cell Proliferation Assay (CellTiter-Glo, CTG), NUGC3 p53 Y220C; type: cell-based; conditions: Homo sapiens, NUGC-3, 120 h, 5 days
Procedure: as §1

H1299 p53 R273H = experiment: Cell Proliferation Assay (CellTiter-Glo, CTG), H1299 p53 R273H (NClH1299-inducible p53 R273H); type: cell-based; conditions: Homo sapiens, NCI-H1299, 120 h, 5 days
Procedure: as §1

p53 Y220C = p53 Y220C (Homo sapiens, UniProt P04637, Y220C); experiment: Luciferase Reporter Assay (Luc), p53 response element, NClH1299 cells with inducible p53 Y220C; type: cell-based; conditions: 6 hour; for AC50: read-out: Luc P53 Y220C AC50
Procedure: Luciferase Reporter Assay Protocol
The cells were then used for p53 reporter assay. 5,000 cells were seeded in each well of 384 plate and cultured in 0.5 ug/mL doxycycline (D3072; Sigma) containing medium for 24 hours before compound treatment. After 6 hour of compound treatment, equal volume of One-Glo reagent (E6110; Promega) was added to each well and the plate was incubated for 5 minutes with shaking at room temperature. The luciferase activity was immediately measured with PheraStar microplate reader.

[1] = molecular target: T1, p53 Y220C mutant protein (amino acid residues 94-293) (Homo sapiens, UniProt P04637, Y220C); experiment: Surface Plasmon Resonance (SPR) assay, Kd_kinetic; type: binding; conditions: SPR, p53 Y220C, read-out: SPR P53 Y220C KD kinetic
T1 construct: p53 Y220C mutant protein (amino acid residues 94-293)
T1 sequence (P04637 94-293, stated change not applied): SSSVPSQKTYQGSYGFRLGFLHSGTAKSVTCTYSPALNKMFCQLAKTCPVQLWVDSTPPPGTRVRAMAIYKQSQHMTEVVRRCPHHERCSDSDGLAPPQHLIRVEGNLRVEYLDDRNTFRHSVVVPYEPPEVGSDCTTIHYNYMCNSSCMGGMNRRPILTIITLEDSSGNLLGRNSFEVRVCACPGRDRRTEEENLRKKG
Procedure: Surface Plasmon Resonance (SPR) Assay Protocol
SPR experiments were performed on a Biacore 8K instrument. […] The running buffer contained 50 mM Tris, pH 7.5, 100 mM NaCl, 1 mM DTT, 0.01% Brij35, 0.05% Tween-20 and 1% DMSO. The assay temperature was maintained at 16 or 20 °C and data were fit into the 1:1 binding model using the Biacore Insight Evaluation software.

[2] = NClH1299-inducible p53 Y220C cells, CellTiter-Glo
[3] = NClH1299-inducible p53 R273H cells, CellTiter-Glo
[4] = Emax, luciferase reporter, NClH1299 inducible p53 Y220C
[5] = NClH1299-inducible p53 Y220C cells
[6] = NClH1299-inducible p53 R273H cells
[7] = AC50, NClH1299 cells with inducible p53 Y220C
[8] = Emax, NClH1299 cells with inducible p53 Y220C, 10 uM tool compound as positive control
[9] = luciferase reporter, NClH1299 inducible p53 Y220C, 10 uM tool compound as positive control
[10] = luciferase reporter, NClH1299 inducible p53 Y220C

| Kd [1] | IC50 (H1299 p53 Y220C; CellTiter-Glo, H1299 p53 Y220C) | Kd ([1]; kinetic KD) | IC50 (H1299 p53 R273H; CellTiter-Glo, H1299 p53 R273H) | Emax (p53 Y220C; [9]) | AC50 (p53 Y220C; [10]) | SMILES | IC50 (NUGC3 p53 Y220C; CellTiter-Glo, NUGC3 p53 Y220C) | further results |
| --- | --- | --- | --- | --- | --- | --- | --- | --- |
| 10 to 100 nM | – | – | – | – | – | CNC(=O)c1ccc(NCC#Cc2nc3c(NC4CCS(=O)(=O)C4)cccn3c2SC(F)(F)F)c(OC)c1 (single isomer, unassigned) [Example 322] | – | IC50 (H1299 p53 Y220C; [2]): 750 to 1500 nM; IC50 (NUGC3 p53 Y220C; NUGC3 cells, CellTiter-Glo): 750 to 1500 nM; IC50 (H1299 p53 R273H; [3]): ≥ 10000 nM; AC50 (p53 Y220C; AC50, luciferase reporter, NClH1299 inducible p53 Y220C): 750 to 1500 nM; Emax (p53 Y220C; [4]): > 90% |
| < 10 nM | – | – | – | – | – | CNC(=O)c1ccc(OC)c(NCC#Cc2cc3c(N[C@@H]4CCN(CC(C)O)C[C@@H]4F)cccn3c2SC(F)(F)F)c1 (single isomer, unassigned) [Example 480, 3-{[3-(8-{[(3S,4R)-3-fluoro-1-[(2R*)-2-hydroxypropyl]piperidin-4-yl]amino}-3-[(trifluoromethyl)sulfanyl]indolizin-2-yl)prop-2-yn-1-yl]amino}-4-methoxy-N-methylbenzamide] | – | IC50 (H1299 p53 Y220C; [5]): < 750 nM; IC50 (NUGC3 p53 Y220C; NUGC3 cells): < 750 nM; IC50 (H1299 p53 R273H; [6]): 8000 to 10000 nM; AC50 (p53 Y220C; [7]): < 750 nM; Emax (p53 Y220C; [8]): > 90% |
| < 10 nM | – | – | – | – | – | CNC(=O)c1cc(NCC#Cc2cc3c(N[C@H]4CCN(C)C[C@H]4F)cccn3c2SC(F)(F)F)c2nccn2c1 (stereo in doubt) [Example 503, 8-{[3-(8-{[(3R,4S)-3-fluoro-1-methylpiperidin-4-yl]amino}-3-[(trifluoromethyl)sulfanyl]indolizin-2-yl)prop-2-yn-1-yl]amino}-N-methylimidazo[1,2-a]pyridine-6-carboxamide] | – | IC50 (H1299 p53 Y220C; [5]): < 750 nM; IC50 (NUGC3 p53 Y220C; NUGC3 cells): < 750 nM; IC50 (H1299 p53 R273H; [6]): 5000 to 8000 nM; AC50 (p53 Y220C; [7]): < 750 nM; Emax (p53 Y220C; [8]): > 90% |
| – | > 3000 nM | – | ≥ 10000 nM | < 70% | > 3000 nM | CNC(=O)c1ccnc(NCC#Cc2nc3c(N[C@@H]4CCN(C)C[C@@H]4F)cccn3c2SC(F)(F)F)c1 [Example 150] | > 3000 nM | – |

Second part, the compound before the results:

| SMILES | Kd [1] | IC50 (H1299 p53 Y220C; CellTiter-Glo, H1299 p53 Y220C) | Kd ([1]; kinetic KD) | IC50 (H1299 p53 R273H; CellTiter-Glo, H1299 p53 R273H) | Emax (p53 Y220C; [9]) | AC50 (p53 Y220C; [10]) | IC50 (NUGC3 p53 Y220C; CellTiter-Glo, NUGC3 p53 Y220C) | further results |
| --- | --- | --- | --- | --- | --- | --- | --- | --- |
| CNC(=O)c1ccc(NCC#Cc2nc3c(N[C@@H]4C[C@H]5COC[C@H](N5)[C@@H]4F)cccn3c2SC(F)(F)F)c(OC)c1 (relative stereo) [Example 251, rel-4-{[3-(8-{[(1R,5R,6S,7S)-6-fluoro-3-oxa-9-azabicyclo [3.3.1]nonan-7-yl]amino}-3-[(trifluoromethyl)sulfanyl]imidazo[1,2-a]pyridin-2-yl)prop-2-yn-1-yl]amino}-3-methoxy-N-methylbenzamide] | – | – | – | – | – | – | – | IC50 (H1299 p53 Y220C; [2]): 1500 to 3000 nM; IC50 (NUGC3 p53 Y220C; NUGC3 cells, CellTiter-Glo): 1500 to 3000 nM; IC50 (H1299 p53 R273H; [3]): ≥ 10000 nM; Emax (p53 Y220C; [4]): 80 to 90% |
| CNC(=O)c1cc(OC)c(NCC#Cc2nc3c(N[C@@H]4CCN(C)C[C@@H]4F)cccn3c2SC(F)(F)F)cn1 [Example 120] | – | < 750 nM | < 10 nM | ≥ 10000 nM | 80 to 90% | < 750 nM | < 750 nM | – |
| CNS(=O)(=O)c1ccc(OC)c(NCC#Cc2cc3c(N[C@@H]4CCN(C)C[C@@H]4F)cccn3c2SC(F)(F)F)c1 [Example 132, 3-{[3-(8-{[(3S,4R)-3-fluoro-1-methylpiperidin-4-yl]amino}-3-[(trifluoromethyl)sulfanyl]indolizin-2-yl)prop-2-yn-1-yl]amino}-4-methoxy-N-methylbenzenesulfonamide] | – | < 750 nM | < 10 nM | 5000 to 8000 nM | 80 to 90% | < 750 nM | < 750 nM | – |
| CNC(=O)c1ccc(N[C@H](C)C#Cc2nc3c(N[C@@H]4CCN(C)C[C@@H]4F)cccn3c2SC(F)(F)F)c(OC)c1 [Example 133] | – | > 3000 nM | 10 to 100 nM | 5000 to 8000 nM | > 90% | > 3000 nM | > 3000 nM | – |
| CNC(=O)c1ccc(N[C@@H](C)C#Cc2nc3c(N[C@@H]4CCN(C)C[C@@H]4F)cccn3c2SC(F)(F)F)c(OC)c1 [Example 134] | – | > 3000 nM | 10 to 100 nM | 5000 to 8000 nM | 70 to 80% | > 3000 nM | > 3000 nM | – |
| CNC(=O)c1ccc(NCC#Cc2nc3c(N[C@@H]4C[C@H]5COC[C@@H]([C@@H]4F)N5C)cccn3c2SC(F)(F)F)c(OC)c1 [Example 137] | – | > 3000 nM | 10 to 100 nM | ≥ 10000 nM | < 70% | > 3000 nM | > 3000 nM | – |
